The results in this text go back to patent US6342245B1, “Compositions of lipid lowering agents” (Janssen Pharmaceutica N.V., priority 1997, dated 2002).

By IC50 is commonly meant the concentration that gives 50% inhibition. The low end stands for higher potency, the high end for lower potency.

For the assay, the system named is apolipoprotein B. As to the kind of experiment: Apolipoprotein B (apo B) inhibition test. In kind it is cell-based, human. As to conditions: Hep G2-cells; concentration needed to reduce apoB secretion to 50% of the control. The method, then: Cultured human liver cells (Hep G2-cells ) which synthesize and secrete low-density lipoproteins, were incubated overnight at 37° C. in a liquid medium containing radioactively labelled leucine. Thus radioactively labelled leucine was incorporated into the apolipoprotein B. The liquid medium was decanted and the apolipoprotein B was isolated by means of a double immunoprecipitation, i.e. first an apolipoprotein B-specific antibody (antibody1) was added to the liquid medium and subsequently a second antibody (antibody2) was added which binds specifically to the apoB-antibody1-complex. The thus formed apoB-antibody1-antibody2 complex precipitated and was isolated by centrifuge. Quantification of the amount of apolipoprotein B synthesized during the night resulted from measuring the radioactivity of the isolated complex. […] For each experiment the inhibition of apolipoprotein-B formation was expressed as [formula]
When more experiments were carried out for the same concentration, the median value of the inhibition calculated for these experiments was calculated. […]

Compound `CCC(C)n1ncn(-c2ccc(N3CCN(c4ccc(OC[C@H]5CO[C@](CSc6nncn6C)(c6ccc(Cl)cc6)O5)cc4)CC3)cc2)c1=O` (relative stereo) [Compound 40, cis-4-[4-[4-[4-[[2-(4-chlorophenyl)-2-[[(4-methyl-4H-1,2,4-triazol-3-yl)thio]methyl]-1,3-dioxolan-4-yl]methoxy]phenyl]-1-piperazinyl]phenyl]-2,4-dihydro-2-(1-methyl-propyl)-3H-1,2,4-triazol-3-one] displayed an IC50 of 23 nM. That is a double-digit nanomolar value.
